{
  "source": "paper PMC4492822",
  "about": "(EMBO Molecular Medicine, 2015)",
  "key": {"HAPI cells [1]": {"system": "HAPI cells", "format": "cell-based, rat", "procedure": "Figure 5 Toxicity studies of RK-33 in mice • Following injection of 20 mg/kg of RK-33, twice a week for 7 weeks, extensive histopathological examination was carried out following necropsy. Identical patterns were observed both in the control and in the treated mice (n = 2). Samples were stained with H&E. Scale bar is 50 μm. • Pharmacokinetics of RK-33 in SCID mice at various time intervals. Results are mean ± SD from 5 mice. LC-MS/MS method was used to determine concentration of RK-33 in mouse plasma and tissue. • Liquid chromatography–mass spectrometry (LC-MS/MS) analysis was performed to determine different metabolites of RK-33. • RK-33 and metabolites characterized by LC-MS/MS in human liver microsomes using the scan mode function of the LC-MS/MS. • HAPI cells were treated with RK-33 (10 μM), HA14-1 (25 μM), or DMSO vehicle, followed by oligomycin (oligo, 0.5 μg/ml), FCCP (3 μM), and antimycin A (AA, 1 μM) while oxygen consumption rate (OCR) was measured. Pyruvate (10 mM) was added in combination with FCCP to ensure that substrate supply was not rate-limiting for maximal OCR. Data are mean ± SD from 2 to 3 wells and representative of independent experiments performed with two different HAPI passages. OCR is baseline-normalized to the point prior to drug or vehicle addition. • HAPI microglial cells were incubated for 1 h in glucose-free XF24 assay medium that was supplemented with 2-deoxyglucose (50 mM) and pyruvate (10 mM). RK-33 (10 μM), oligomycin (0.5 μg/ml), or vehicle control was additionally present as indicated. Results are mean ± SD from 12 replicates pooled from experiments using two consecutive passages. Significance was assessed by two-sided, unpaired t-test. […]\nOxygen consumption measurements were performed using an XF24 Extracellular Flux Analyzer (Seahorse Bioscience, Billerica, MA) as previously described (Wu et al, [2007]; Clerc & Polster, [2012]). […] The ATP bioluminescent somatic cell assay kit (Sigma-Aldrich) was employed for the determination of ATP levels by luminescence using a FLUOstar OPTIMA multimodal plate reader (BMG LABTECH, Inc., Cary, NC). […]"}, "HAPI cells [2]": {"system": "HAPI cells", "format": "cell-based, rat", "details": "0.5 μg/ml, 1 h"}},
  "data": [
    {"smiles": "CCOC(=O)C1=C(N)Oc2ccc(Br)cc2C1C(C#N)C(=O)OCC", "note": "(stereo not shown) [HA14-1]", "values": [
      {"measurement": "OCR measured in the presence of FCCP", "setting": "HAPI cells [1]; 25 μM, positive control", "value": "decreased OCR measured in the presence of FCCP"},
      {"measurement": "oligomycin-insensitive oxygen consumption", "setting": "HAPI cells [1]; 25 μM, positive control", "value": "elevated oligomycin-insensitive oxygen consumption"}
    ]},
    {"smiles": "CCCCCC[C@H]1C(=O)O[C@H](C)[C@H](NC(=O)c2cccc(NC=O)c2O)C(=O)O[C@@H](C)[C@@H]1OC(=O)CC(C)C", "note": "[antimycin A]", "values": [
      {"measurement": "oxygen consumption in the presence of all drugs", "setting": "HAPI cells [1]; 1 μM", "value": "potently inhibited"}
    ]},
    {"smiles": "CC[C@H]1/C=C/C=C/C[C@@H](C)[C@H](O)[C@@](C)(O)C(=O)[C@@H](C)[C@H](O)[C@@H](C)C(=O)[C@@H](C)[C@H](O)[C@@H](C)/C=C/C(=O)O[C@@H]2[C@H](C)[C@H](CC1)O[C@]1(CC[C@H](C)[C@H](C[C@@H](C)O)O1)[C@H]2C", "note": "[oligomycin]", "values": [
      {"measurement": "decrease of total cellular ATP", "setting": "HAPI cells [2]", "value": "approximately 70%"}
    ]}
  ]
}
